Results as given in patent US9937183B2, “Antimicrobial compounds and methods of making and using the same” (priority 2013, dated 2018).
In brackets after ≈: the same amount, converted by molar mass. Like-named read-outs stand apart in the source and are kept apart here.

Tests used:
Assay type in all cases: cell-based
[1] = system: B. pseudomallei; assay: microbe, parasite or virus in culture; settings: Burkholderia pseudomallei; for MIC50: read-out: B. pseudomallei MIC50; for MIC90: read-out: B. pseudomallei MIC90; for MIC: read-out: B. pseudomallei MIC Range
[2] = system: E. coli ATCC25922; assay: MIC, microtiter-based liquid assay (CLSI); settings: Escherichia coli
[3] = system: E. coli 1705878; assay: MIC, microtiter-based liquid assay (CLSI); settings: Escherichia coli, MDR strain
[4] = system: E. coli MG1655 parent; assay: MIC, microtiter-based liquid assay (CLSI); settings: Escherichia coli
[5] = system: E. coli CAG12184 TolC; assay: MIC, microtiter-based liquid assay (CLSI); settings: Escherichia coli, CAG12184TOLC
[6] = system: S. pneumoniae 02J1175 Mef(A); assay: MIC, microtiter-based liquid assay (CLSI); settings: Streptococcus pneumoniae
[7] = system: S. aureus 11540 MRSA; assay: MIC, microtiter-based liquid assay (CLSI); settings: Staphylococcus aureus
[8] = system: K. pneumoniae 1705949; assay: MIC, microtiter-based liquid assay (CLSI); settings: Klebsiella pneumoniae, MDR strain
[9] = system: K. pneumoniae 1705966; assay: MIC, microtiter-based liquid assay (CLSI); settings: Klebsiella pneumoniae
[10] = system: A. baumannii 1705936; assay: MIC, microtiter-based liquid assay (CLSI); settings: Acinetobacter baumannii, MDR strain
[11] = system: A. baumannii 1705943; assay: MIC, microtiter-based liquid assay (CLSI); settings: Acinetobacter baumannii
[12] = system: P. aeruginosa ATCC27853; assay: MIC, microtiter-based liquid assay (CLSI); settings: Pseudomonas aeruginosa
[13] = system: P. aeruginosa 1705886; assay: MIC, microtiter-based liquid assay (CLSI); settings: Pseudomonas aeruginosa
[14] = system: P. aeruginosa 1705904; assay: MIC, microtiter-based liquid assay (CLSI); settings: Pseudomonas aeruginosa, MDR strain
[15] = system: E. faecium A6349 VanA + LNZ-R; assay: MIC, microtiter-based liquid assay (CLSI); settings: Enterococcus faecium
[16] = system: B. anthracis; assay: microbe, parasite or virus in culture; settings: Bacillus anthracis; for MIC50: read-out: B. anthracis MIC50; for MIC90: read-out: B. anthracis MIC90; for MIC: read-out: B. anthracis MIC Range
[17] = system: Y. pestis; assay: microbe, parasite or virus in culture; settings: Yersinia pestis; for MIC50: read-out: Y. pestis MIC50; for MIC90: read-out: Y. pestis MIC90; for MIC: read-out: Y. pestis MIC Range
[18] = system: B. mallei; assay: microbe, parasite or virus in culture; settings: Burkholderia mallei; for MIC50: read-out: B. mallei MIC50; for MIC90: read-out: B. mallei MIC90; for MIC: read-out: B. mallei MIC Range
[19] = system: F. tularensis; assay: microbe, parasite or virus in culture; settings: Francisella tularensis; for MIC50: read-out: F. tularensis MIC50; for MIC90: read-out: F. tularensis MIC90; for MIC: read-out: F. tularensis MIC Range
[20] = ATCC25922, read-out: MIC E. coli ATCC25922 + 50% HS
[21] = ATCC25922, read-out: MIC E. coli ATCC25922

Row | SMILES | MIC50 [1] | MIC90 [1] | MIC [1] | MIC [2, 20] | MIC [2, 21] | MIC [3] | MIC [4] | MIC [5] | MIC [6] | MIC [7] | MIC [8] | MIC [9] | MIC [10] | MIC [11] | MIC [12] | MIC [13] | MIC [15] | MIC50 [18] | MIC90 [18] | MIC [18] | further results
1 | CC(C)(O/N=C(\C(=O)N[C@@H]1C(=O)N2C(C(=O)[O-])=C(C[n+]3ccccc3)CS[C@H]12)c1csc(N)n1)C(=O)O [Ceftazidime, reference compound] | 2 µg/mL (≈ 3.66 µM) | 4 µg/mL (≈ 7.32 µM) | 1 to 64 µg/mL (≈ 1.83 to 117 µM) |  |  |  |  |  |  |  |  |  |  |  |  |  |  |  |  |  | 
2 | C[C@H](NCCCNC(=N)N)c1ccc(-n2cc3cc(-c4cc(CCC[C@@H](N)CF)cc(Cl)c4F)[nH]c3nc2=O)cc1 [Compound 17] | 8 µg/mL (≈ 13.7 µM) | 16 µg/mL (≈ 27.3 µM) | 1 to 16 µg/mL (≈ 1.71 to 27.3 µM) | 0.5 µg/mL | 0.25 µg/mL (≈ 0.427 µM) | 2 µg/mL (≈ 3.42 µM) | 1 µg/mL (≈ 1.71 µM) | 0.125 µg/mL (≈ 0.214 µM) | 0.125 µg/mL (≈ 0.214 µM) | 0.25 µg/mL (≈ 0.427 µM) | 1 µg/mL (≈ 1.71 µM) | 0.125 µg/mL (≈ 0.214 µM) | 1 µg/mL (≈ 1.71 µM) | 0.25 µg/mL (≈ 0.427 µM) | 8 µg/mL (≈ 13.7 µM) | 4 µg/mL (≈ 6.84 µM) | 0.5 µg/mL | 0.06 µg/mL (≈ 0.103 µM) | 0.25 µg/mL (≈ 0.427 µM) | 0.03 to 0.25 µg/mL (≈ 0.0513 to 0.427 µM) | MIC [14]: 8 µg/mL (≈ 13.7 µM); MIC50 [16]: 0.25 µg/mL (≈ 0.427 µM); MIC90 [16]: 0.25 µg/mL (≈ 0.427 µM); MIC [16]: 0.03 to 0.5 µg/mL (≈ 0.0513 to 0.855 µM); MIC50 [17]: 0.25 µg/mL (≈ 0.427 µM); MIC90 [17]: 0.5 µg/mL (≈ 0.855 µM); MIC [17]: 0.03 to 0.5 µg/mL (≈ 0.0513 to 0.855 µM); MIC50 [19]: ≤ 0.03 µg/mL; MIC90 [19]: 0.12 µg/mL (≈ 0.205 µM); MIC [19]: 0.03 to 1 µg/mL (≈ 0.0513 to 1.71 µM)
3 | C=C[C@H](NCCCNC(=N)N)c1ccc(-n2cc3cc(-c4cc(CCC[C@H](C)N)cc(Cl)c4F)[nH]c3nc2=O)cc1 [Compound 10] | 1 µg/mL (≈ 1.73 µM) | 2 µg/mL (≈ 3.45 µM) | 0.25 to 8 µg/mL (≈ 0.432 to 13.8 µM) | 0.25 µg/mL | 0.25 µg/mL (≈ 0.432 µM) | 0.5 µg/mL (≈ 0.863 µM) | 0.25 µg/mL (≈ 0.432 µM) | 0.25 µg/mL (≈ 0.432 µM) | 0.25 µg/mL (≈ 0.432 µM) | 0.25 µg/mL (≈ 0.432 µM) | 0.5 µg/mL (≈ 0.863 µM) | 0.25 µg/mL (≈ 0.432 µM) | 2 µg/mL (≈ 3.45 µM) | 0.25 µg/mL (≈ 0.432 µM) | 4 µg/mL (≈ 6.91 µM) | 2 µg/mL (≈ 3.45 µM) | 0.5 µg/mL | ≤ 0.03 µg/mL | 0.12 µg/mL (≈ 0.207 µM) | 0.03 to 0.25 µg/mL (≈ 0.0518 to 0.432 µM) | MIC [14]: 4 µg/mL (≈ 6.91 µM); MIC50 [16]: 0.12 µg/mL (≈ 0.207 µM); MIC90 [16]: 0.25 µg/mL (≈ 0.432 µM); MIC [16]: 0.03 to 0.25 µg/mL (≈ 0.0518 to 0.432 µM); MIC50 [17]: ≤ 0.03 µg/mL; MIC90 [17]: 0.06 µg/mL (≈ 0.104 µM); MIC [17]: 0.03 to 0.25 µg/mL (≈ 0.0518 to 0.432 µM); MIC50 [19]: ≤ 0.03 µg/mL; MIC90 [19]: 0.06 µg/mL (≈ 0.104 µM); MIC [19]: 0.03 to 4 µg/mL (≈ 0.0518 to 6.91 µM)
4 | CC[C@H]1OC(=O)[C@H](C)[C@@H](O[C@H]2C[C@@](C)(OC)[C@@H](O)[C@H](C)O2)[C@H](C)[C@@H](O[C@@H]2O[C@H](C)C[C@H](N(C)C)[C@H]2O)[C@](C)(O)C[C@@H](C)CN(C)[C@H](C)[C@@H](O)[C@]1(C)O [Azithromycin, reference compound] |  |  |  |  |  |  |  |  |  |  |  |  |  |  |  |  |  | 0.5 µg/mL (≈ 0.668 µM) | 1 µg/mL (≈ 1.34 µM) | 0.12 to 1 µg/mL (≈ 0.16 to 1.34 µM) | 
5 | C[C@H](N)CCCc1cc(Cl)c(F)c(-c2cc3cn(-c4ccc([C@H](CCNc5nccs5)NCCCNC(=N)N)cc4)c(=O)nc3[nH]2)c1 [Compound 15] | 8 µg/mL (≈ 11.8 µM) | 16 µg/mL (≈ 23.6 µM) | 4 to 32 µg/mL (≈ 5.89 to 47.1 µM) | 0.5 µg/mL | 0.5 µg/mL (≈ 0.736 µM) | 2 µg/mL (≈ 2.94 µM) | 1 µg/mL (≈ 1.47 µM) | 0.25 µg/mL (≈ 0.368 µM) | 0.25 µg/mL (≈ 0.368 µM) | 0.5 µg/mL (≈ 0.736 µM) | 1 µg/mL (≈ 1.47 µM) | 0.25 µg/mL (≈ 0.368 µM) | 1 µg/mL (≈ 1.47 µM) | 0.5 µg/mL (≈ 0.736 µM) | 8 µg/mL (≈ 11.8 µM) | 4 µg/mL (≈ 5.89 µM) | 2 µg/mL | 0.06 µg/mL (≈ 0.0883 µM) | 0.25 µg/mL (≈ 0.368 µM) | 0.03 to 0.5 µg/mL (≈ 0.0442 to 0.736 µM) | MIC [14]: 8 µg/mL (≈ 11.8 µM); MIC50 [16]: 0.12 µg/mL (≈ 0.177 µM); MIC90 [16]: 0.12 µg/mL (≈ 0.177 µM); MIC [16]: 0.03 to 0.25 µg/mL (≈ 0.0442 to 0.368 µM); MIC50 [17]: 0.5 µg/mL (≈ 0.736 µM); MIC90 [17]: 1 µg/mL (≈ 1.47 µM); MIC [17]: 0.06 to 1 µg/mL (≈ 0.0883 to 1.47 µM); MIC50 [19]: 0.06 µg/mL (≈ 0.0883 µM); MIC90 [19]: 0.25 µg/mL (≈ 0.368 µM); MIC [19]: 0.03 to 2 µg/mL (≈ 0.0442 to 2.94 µM)
6 | CC(C)c1cc(CCC[C@H](C)N)cc(-c2cc3cn(-c4ccc([C@H](C)NCCCNC(=N)N)cc4)c(=O)nc3[nH]2)c1F [Compound 7] | 2 µg/mL (≈ 3.48 µM) | 4 µg/mL (≈ 6.96 µM) | 1 to 8 µg/mL (≈ 1.74 to 13.9 µM) | 1 µg/mL | 0.5 µg/mL (≈ 0.87 µM) | 1 µg/mL (≈ 1.74 µM) | 0.5 µg/mL (≈ 0.87 µM) | 0.5 µg/mL (≈ 0.87 µM) | 0.25 µg/mL (≈ 0.435 µM) | 0.5 µg/mL (≈ 0.87 µM) | 1 µg/mL (≈ 1.74 µM) | 0.5 µg/mL (≈ 0.87 µM) | 4 µg/mL (≈ 6.96 µM) | 0.5 µg/mL (≈ 0.87 µM) | 8 µg/mL (≈ 13.9 µM) | 4 µg/mL (≈ 6.96 µM) | 2 µg/mL | 0.06 µg/mL (≈ 0.104 µM) | 0.12 µg/mL (≈ 0.209 µM) | 0.03 to 0.5 µg/mL (≈ 0.0522 to 0.87 µM) | MIC50 [16]: 0.12 µg/mL (≈ 0.209 µM); MIC90 [16]: 0.25 µg/mL (≈ 0.435 µM); MIC [16]: 0.03 to 0.5 µg/mL (≈ 0.0522 to 0.87 µM); MIC50 [17]: 0.25 µg/mL (≈ 0.435 µM); MIC90 [17]: 0.5 µg/mL (≈ 0.87 µM); MIC [17]: 0.06 to 1 µg/mL (≈ 0.104 to 1.74 µM); MIC50 [19]: 0.06 µg/mL (≈ 0.104 µM); MIC90 [19]: 0.12 µg/mL (≈ 0.209 µM); MIC [19]: 0.03 to 0.5 µg/mL (≈ 0.0522 to 0.87 µM)
